Patent publication US8017612B2, “Piperazine compound and use thereof as a HCV polymerase inhibitor” (priority 2006, dated 2011)
pIC50: −log10 of the molar value.

How the values were obtained:
[1] = biological target: T1, HCV polymerase (NS5B) type 1a (Hepatitis C virus genotype 1a, UniProt P26664); experiment: Assay of enzyme (HCV polymerase) inhibitory activity, type 1a enzyme; format: biochemical, HCV type 1a (cloned from the blood of patients)
T1 construct: made in house; host or cells: Escherichia coli (by the 'similar method' of the 1b enzyme)
Procedure, shortened: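 Reactions ran 60 min at 25° C in 20 mM Tris-HCl pH 7.5, 5 mM MgCl2, 50 mM NaCl, holding genotype 1a NS5B (1.5 μg/ml, Δ47 C-terminus, 6His), substrate RNA 5 μg/ml, UTP 2 μM with tritiated UTP and other NTPs 50 μM. IC50 derived from incorporated radiolabel in filter-trapped RNA relative to uninhibited reaction.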

[2] = biological target: T2, HCV polymerase (NS5B) type 1b (Hepatitis C virus genotype 1b, UniProt P26663); experiment: Assay of enzyme (HCV polymerase) inhibitory activity, type 1b enzyme; format: biochemical, HCV BK strain (type 1b)
T2 construct: a region encoding NS5B (J Virol 1991 March, 65(3), 1105-13, 544 amino acids after deletion of 47 amino acids on the C-terminal); 6xHis (C); made in house; host or cells: Escherichia coli
Procedure, shortened: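 IC50 derived from [3H]UTP incorporation into TCA-insoluble RNA, compared with and without test compound. Reaction (25 °C, 60 min, Tris pH 7.5, 5 mM MgCl2): E. coli-expressed 1b NS5B Δ47 with His tag at 0.5 μg/ml, 5 μg/ml run-off substrate RNA, ATP/GTP/CTP 50 μM, UTP 2 μM.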

[3] = HCV polymerase inhibitory activity IC50, 1a, type 1a enzyme
[4] = HCV polymerase inhibitory activity IC50, 1b, type 1b enzyme
[5] = HCV polymerase inhibitory activity (IC50), 1a, type 1a enzyme 1.5 μg/ml, 25° C., 60 min
[6] = HCV polymerase inhibitory activity (IC50), 1b, type 1b enzyme 0.5 μg/ml, 25° C., 60 min

Row | SMILES | pIC50 [1, 3] | pIC50 [2, 4] | pIC50 [1, 5] | pIC50 [2, 6]
1 | CCCc1ccc(CNC(=O)[C@H]2CN(c3cnc4cnccc4n3)CCN2S(=O)(=O)c2ccc(-c3cccc(O)c3)cc2)cc1 [Example 778, (R)-1-(3′-hydroxy-biphenyl-4-sulfonyl)-4-pyrido[3,4-b]pyrazin-2-yl-piperazine-2-carboxylic acid 4-propyl-benzylamide] | > 7.00 | > 7.00 |  | 
2 | CCCc1ccc(S(=O)(=O)N2CCN(c3nc(C(=O)OCC)cs3)C[C@@H]2C(=O)NCc2ccc(C(C)C)cc2)cc1 [Example 296, 2-[(R)-3-(4-isopropyl-benzylcarbamoyl)-4-(4-propyl-benzenesulfonyl)-piperazin-1-yl]-thiazole-4-carboxylic acid ethyl ester] |  |  | > 7.00 | > 7.00
3 | CCNC(=O)N1CCc2nc(N3CCN(S(=O)(=O)c4ccc(OC(F)(F)F)cc4)[C@@H](C(=O)NCc4ccc(C(C)(C)C)cc4)C3)sc2C1 [Example 601, 2-[(R)-3-(4-tert-butyl-benzylcarbamoyl)-4-(4-trifluoromethoxy-benzenesulfonyl)-piperazin-1-yl]-6,7-dihydro-4H-thiazolo[5,4-c]pyridine-5-carboxylic acid ethylamide] |  |  | > 7.00 | > 7.00
4 | CC(C)c1ccc(CNC(=O)[C@H]2CN(c3ncc[nH]3)CCN2S(=O)(=O)c2ccc(C(F)(F)F)cc2)cc1 [Example 353, (R)-4-(1H-imidazol-2-yl)-1-(4-trifluoromethyl-benzenesulfonyl)-piperazine-2-carboxylic acid 4-isopropyl-benzylamide] |  |  | 6.00 to 7.00 | 6.00 to 7.00
5 | CC(=O)N1CCN(S(=O)(=O)c2ccc(C(C)C)cc2)C(C(=O)NCc2ccc(N(C)C)cc2)C1 (centres unmarked) [Example 37, 4-acetyl-1-(4-isopropyl-benzenesulfonyl)-piperazine-2-carboxylic acid 4-dimethylamino-benzylamide] |  |  | 6.00 to 7.00 | 6.00 to 7.00
6 | CC(=O)N1CCN(S(=O)(=O)c2ccc(C(C)C)cc2)C(C(=O)NCc2cccc(C(F)(F)F)c2)C1 (centres unmarked) [Example 119, 4-acetyl-1-(4-isopropyl-benzenesulfonyl)-piperazine-2-carboxylic acid 3-trifluoromethyl-benzylamide] |  |  | < 6.00 | < 6.00
7 | O=C(NCC1CN(c2ccccc2)C1)[C@H]1CN(c2cnc3cncnc3n2)CCN1S(=O)(=O)c1ccc(OC(F)(F)F)cc1 [Example 867, (R)-4-pteridin-7-yl-1-(4-trifluoromethoxy-benzenesulfonyl)-piperazine-2-carboxylic acid (1-phenyl-azetidin-3-ylmethyl)-amide] | 6.00 to 7.00 | 6.00 to 7.00 |  | 
8 | CC(=O)N1CCN(S(=O)(=O)c2ccc(OC(F)(F)F)cc2)C(C(=O)NCc2ccc(C(F)(F)F)cc2)C1 (centres unmarked) [Example 65, 4-acetyl-1-(4-trifluoromethoxy-benzenesulfonyl)-piperazine-2-carboxylic acid 4-trifluoromethyl-benzylamide] |  |  | < 6.00 | < 6.00
9 | COc1ncc2sc(N3CCN(S(=O)(=O)c4ccc(C(F)(F)F)cc4)[C@@H](C(=O)NCc4ccc(OC(F)(F)F)cc4)C3)nc2n1 [Example 905, (R)-4-(5-methoxy-thiazolo[4,5-d]pyrimidin-2-yl)-1-(4-trifluoromethyl-benzenesulfonyl)-piperazine-2-carboxylic acid 4-trifluoromethoxy-benzylamide] | > 7.00 | > 7.00 |  | 
10 | O=C(NCc1ccc(OC(F)(F)F)cc1)[C@H]1CN(c2nc3nc(C(F)(F)F)ncc3s2)CCN1S(=O)(=O)c1ccc(C(F)(F)F)cc1 [Example 981, (R)-1-(4-trifluoromethyl-benzenesulfonyl)-4-(5-trifluoromethyl-thiazolo[4,5-d]pyrimidin-2-yl)-piperazine-2-carboxylic acid 4-trifluoromethoxy-benzylamide] | > 7.00 | > 7.00 |  | 
11 | CCCc1ccc(S(=O)(=O)N2CCN(C(C)=O)C[C@@H]2C(=O)NCc2ccc(C(C)C)cc2)cc1 [Example 205, (R)-4-acetyl-1-(4-propyl-benzenesulfonyl)-piperazine-2-carboxylic acid 4-isopropyl-benzylamide] |  |  | > 7.00 | > 7.00
12 | CC(C)c1ccc(CNC(=O)[C@H]2CN(c3n[nH]c(C(=O)O)c3Cl)CCN2S(=O)(=O)c2ccc(C(F)(F)F)cc2)cc1 [Example 427, 4-chloro-5-[(R)-3-(4-isopropyl-benzylcarbamoyl)-4-(4-trifluoromethyl-benzenesulfonyl)-piperazin-1-yl]-2H-pyrazole-3-carboxylic acid] |  |  | < 6.00 | < 6.00
13 | Cc1csc(N2CCN(S(=O)(=O)c3ccc(C(F)(F)F)cc3)[C@@H](C(=O)NCc3ccc(C(C)C)cc3)C2)n1 [Example 184, (R)-4-(4-methyl-thiazol-2-yl)-1-(4-trifluoromethyl-benzenesulfonyl)-piperazine-2-carboxylic acid 4-isopropyl-benzylamide] |  |  | 6.00 to 7.00 | 6.00 to 7.00
14 | CC(=O)N1CCN(S(=O)(=O)c2ccc(CC3CC3)cc2)[C@@H](C(=O)NCc2ccc(C(C)C)cc2)C1 [Example 428, (R)-4-acetyl-1-(4-cyclopropylmethyl-benzenesulfonyl)-piperazine-2-carboxylic acid 4-isopropyl-benzylamide] |  |  | > 7.00 | > 7.00
15 | CC(C)NC(=O)c1cncc2ncc(N3CCN(S(=O)(=O)c4ccc(OC(F)(F)F)cc4)[C@@H](C(=O)NCc4ccc(OC(F)(F)F)cc4)C3)nc12 [Example 871, 2-[(R)-4-(4-trifluoromethoxy-benzenesulfonyl)-3-(4-trifluoromethoxy-benzylcarbamoyl)-piperazin-1-yl]-pyrido[3,4-b]pyrazine-8-carboxylic acid isopropylamide] | > 7.00 | > 7.00 |  | 
16 | CCC(F)(F)c1ccc(CNC(=O)[C@H]2CN(c3cnc4cnccc4n3)CCN2S(=O)(=O)c2ccc(N3CCCC3)cc2)cc1 [Example 743, (R)-4-pyrido[3,4-b]pyrazin-2-yl-1-(4-pyrrolidin-1-yl-benzenesulfonyl)-piperazine-2-carboxylic acid 4-(1,1-difluoro-propyl)-benzylamide] | > 7.00 | > 7.00 |  | 
17 | COC(=O)c1ccc(N2CCN(S(=O)(=O)c3ccc(C(F)(F)F)cc3)[C@@H](C(=O)NCc3ccc(C(C)C)cc3)C2)nc1 [Example 303, 6-[(R)-3-(4-isopropyl-benzylcarbamoyl)-4-(4-trifluoromethyl-benzenesulfonyl)-piperazin-1-yl]-nicotinic acid methyl ester] |  |  | > 7.00 | > 7.00
18 | O=C1CCC(N2CCN(S(=O)(=O)c3ccc(OC(F)(F)F)cc3)[C@@H](C(=O)NCc3ccc(OC(F)(F)F)cc3)C2)CN1 (stereo partly drawn) [Example 923, (R)-4-(6-oxo-piperidin-3-yl)-1-(4-trifluoromethoxy-benzenesulfonyl)-piperazine-2-carboxylic acid 4-trifluoromethoxy-benzylamide] | 6.00 to 7.00 | 6.00 to 7.00 |  | 
19 | CCCc1ccc(CNC(=O)[C@H]2CN(c3cnc4[nH]c(=O)[nH]c4n3)CCN2S(=O)(=O)c2ccc(OC(F)(F)F)cc2)cc1 [Example 628, (R)-4-(2-oxo-2,3-dihydro-1H-imidazo[4,5-b]pyrazin-5-yl)-1-(4-trifluoromethoxy-benzenesulfonyl)-piperazine-2-carboxylic acid 4-propyl-benzylamide] |  |  | 6.00 to 7.00 | > 7.00
